In brackets after ≈: the same amount, converted by molar mass. Like-named read-outs stand apart in the source and are kept apart here.
What was measured:
S. aureus ATCC29213 = experiment: MIC against MSSA; format: cell-based, Staphylococcus aureus; conditions: MSSA ATCC 29213; for MIC: Staphylococcus aureus, Table 10, unit inferred, read-out: Activity (MIC) against S. aureus
C. difficile = experiment: MIC by broth microdilution against C. difficile strains; format: cell-based, Clostridioides difficile; conditions: for MIC: Clostridioides difficile, ATCC43255, ATCC 43255, ribotype 087, read-out: MIC C. difficile; for Selectivity: MIC MRSA/MIC C. difficile, Table 3
E. faecium NCTC7171 = experiment: MIC against E. faecium; format: cell-based, Enterococcus faecium; conditions: E. faecium NCTC 7171; for MIC: Enterococcus faecium, NCTC7171, Table 10, unit inferred, read-out: Activity (MIC) against E. faecium
MRSA (NRS70, NRS119) = experiment: MIC against MRSA strains; format: cell-based, Staphylococcus aureus; conditions: NRS70 strain; for MIC: Staphylococcus aureus, read-out: MIC MRSA

| Compound | MIC (S. aureus ATCC29213) [µg/mL] | MIC (E. faecium NCTC7171) [µg/mL] | MIC (C. difficile; Table 3 (SAR^2 and SAR^3)) [µg/mL] | Selectivity (C. difficile) | MIC (MRSA (NRS70, NRS119); Table 3 (SAR^2 and SAR^3)) [µg/mL] | other results |
| --- | --- | --- | --- | --- | --- | --- |
| Cc1coc(NC(=O)c2ccnc(-c3ccc(Cl)c(Cl)c3)c2)n1 [Compound 14, 2-(3,4-Dichlorophenyl)-N-(4-methyloxazol-2-yl)isonicotinamide] | 0.06 (≈ 0.172 µM) | 0.25 (≈ 0.718 µM) | – | – | – | MIC (C. difficile; Table 2 (SAR^1)): 0.25 µg/mL (≈ 0.718 µM); MIC (MRSA (NRS70, NRS119); Table 2 (SAR^1)): 0.06 µg/mL (≈ 0.172 µM) |
| O=C(Nc1nc2ccccc2o1)c1ccnc(-c2ccc(Cl)c(Cl)c2)c1 [Compound 21, N-(benzo[d]oxazol-2-yl)-2-(3,4-dichlorophenyl)isonicotinamide] | 16 (≈ 41.6 µM) | 16 (≈ 41.6 µM) | – | – | – | MIC (C. difficile; Table 2 (SAR^1)): 1 µg/mL (≈ 2.6 µM); MIC (MRSA (NRS70, NRS119); Table 2 (SAR^1)): 1 µg/mL (≈ 2.6 µM) |
| CN(C)C(=O)c1cnc(NC(=O)c2ccnc(-c3ccc(Cl)c(Cl)c3)c2)o1 [Compound 28, (2-(3,4-Dichlorophenyl)isonicotinamido)-N,N-dimethyloxazole-5-carboxamide] | – | – | – | – | – | Activity (MIC) against S. aureus (S. aureus ATCC29213; Table 10, unit not given): 2; MIC C. difficile (C. difficile; ATCC 43255, ribotype 087, Table 2 (SAR^1)): 0.5 µg/mL (≈ 1.23 µM); Activity (MIC) against E. faecium (E. faecium NCTC7171; Table 10, unit not given): 8; MIC MRSA (MRSA (NRS70, NRS119); Table 2 (SAR^1)): 4 µg/mL (≈ 9.87 µM) |
| O=C(Nc1ncco1)c1ccnc(-c2ccc(Cl)cc2)c1 [Compound 32, 2-(4-Chlorophenyl)-N-(oxazol-2-yl)isonicotinamide] | 1 (≈ 3.34 µM) | 2 (≈ 6.67 µM) | 0.5 (≈ 1.67 µM) | 2 | 1 (≈ 3.34 µM) | – |
| O=C(Nc1ncco1)c1ccnc(-c2cccc(Cl)c2)c1 [Compound 33, 2-(3-Chlorophenyl)-N-(oxazol-2-yl)isonicotinamide] | 0.5 (≈ 1.67 µM) | 1 (≈ 3.34 µM) | 0.5 (≈ 1.67 µM) | 0.5 | 0.25 (≈ 0.834 µM) | – |
| O=C(Nc1ncco1)c1ccnc(-c2ccc(F)c(F)c2)c1 [Compound 35, 2-(3,4-Difluorophenyl)-N-(oxazol-2-yl)isonicotinamide] | 4 (≈ 13.3 µM) | 1 (≈ 3.32 µM) | 1 (≈ 3.32 µM) | 2 | 2 (≈ 6.64 µM) | – |
| O=C(Nc1ncco1)c1ccnc(-c2ccc(F)cc2)c1 [Compound 36, 2-(4-Fluorophenyl)-N-(oxazol-2-yl)isonicotinamide] | 4 (≈ 14.1 µM) | 8 (≈ 28.2 µM) | 2 (≈ 7.06 µM) | 2 | 4 (≈ 14.1 µM) | – |
| O=C(Nc1ncco1)c1ccnc(-c2cccc(F)c2)c1 [Compound 37, 2-(3-Fluorophenyl)-N-(oxazol-2-yl)isonicotinamide] | 2 (≈ 7.06 µM) | 4 (≈ 14.1 µM) | 1 (≈ 3.53 µM) | 2 | 2 (≈ 7.06 µM) | – |
| O=C(Nc1ncco1)c1ccnc(-c2ccc(Cl)c(F)c2)c1 [Compound 39, 2-(4-Chloro-3-fluorophenyl)-N-(oxazol-2-yl)isonicotinamide] | 0.25 (≈ 0.787 µM) | 0.5 (≈ 1.57 µM) | 0.125 (≈ 0.393 µM) | 0.5 | 0.0625 (≈ 0.197 µM) | – |
| O=C(Nc1ncco1)c1ccnc(-c2ccc(F)c(F)c2)c1F [Compound 68, 2-(3,4-Difluorophenyl)-3-fluoro-N-(oxazol-2-yl)isonicotinamide] | – | – | 2 (≈ 6.26 µM) | 2 | 4 (≈ 12.5 µM) | – |
| O=C(Nc1ncco1)c1ccnc(-c2cccc(Cl)c2)c1F [Compound 69, 2-(3-Chlorophenyl)-3-fluoro-N-(oxazol-2-yl)isonicotinamide] | – | – | 1 (≈ 3.15 µM) | 2 | 2 (≈ 6.3 µM) | – |
| O=C(Nc1ncco1)c1cc(-c2ccc(F)c(F)c2)ncc1F [Compound 72, 2-(3,4-Difluorophenyl)-5-fluoro-N-(oxazol-2-yl)isonicotinamide] | – | – | 0.5 (≈ 1.57 µM) | 8 | 4 (≈ 12.5 µM) | – |
| O=C(Nc1ncco1)c1cc(-c2ccc(F)c(Cl)c2)ncc1F [Compound 73, 2-(3-Chloro-4-fluorophenyl)-5-fluoro-N-(oxazol-2-yl)isonicotinamide] | – | – | 0.5 (≈ 1.49 µM) | 4 | 2 (≈ 5.96 µM) | – |
| O=C(Nc1ncco1)c1cc(-c2ccc(Cl)c(F)c2)ncc1F [Compound 74, 2-(4-Chloro-3-fluorophenyl)-5-fluoro-N-(oxazol-2-yl)isonicotinamide] | – | – | 0.25 (≈ 0.745 µM) | 8 | 2 (≈ 5.96 µM) | – |
| O=C(Nc1ncco1)c1cccc(-c2ccc(Cl)c(Cl)c2)n1 [Compound 75, 6-(3,4-Dichlorophenyl)-N-(oxazol-2-yl)picolinamide] | – | – | ≥ 16 | ≤ 0.125 | 2 (≈ 5.99 µM) | – |
| O=C(Nc1ncco1)c1cccc(-c2cccc(Cl)c2)n1 [Compound 76, 6-(3-Chlorophenyl)-N-(oxazol-2-yl)picolinamide] | – | – | 8 (≈ 26.7 µM) | 0.5 | 4 (≈ 13.3 µM) | – |
| O=C(Nc1ncco1)c1cccc(-c2ccc(F)c(Cl)c2)n1 [Compound 77, 6-(3-Chloro-4-fluorophenyl)-N-(oxazol-2-yl)picolinamide] | – | – | 8 (≈ 25.2 µM) | 1 | 8 (≈ 25.2 µM) | – |
| O=C(Nc1ncco1)c1cccc(-c2ccc(Cl)c(F)c2)n1 [Compound 78, 6-(4-Chloro-3-fluorophenyl)-N-(oxazol-2-yl)picolinamide] | – | – | ≥ 16 | ≤ 8 | 128 (≈ 403 µM) | – |

| Compound | MIC (S. aureus ATCC29213) [µg/mL] | MIC (E. faecium NCTC7171) [µg/mL] | MIC (C. difficile; Table 3 (SAR^2 and SAR^3)) [µg/mL] | Selectivity (C. difficile) | MIC (MRSA (NRS70, NRS119); Table 3 (SAR^2 and SAR^3)) [µg/mL] | other results |
| --- | --- | --- | --- | --- | --- | --- |
| O=C(Nc1ncco1)c1cccc(-c2ccc(F)cc2)n1 [Compound 79, 6-(4-Fluorophenyl)-N-(oxazol-2-yl)picolinamide] | – | – | ≥ 16 | ≤ 2 | 32 (≈ 113 µM) | – |
| O=C(Nc1ncco1)c1cccc(-c2ccc(F)c(F)c2)n1 [Compound 80, 6-(3,4-Difluorophenyl)-N-(oxazol-2-yl)picolinamide] | – | – | ≥ 16 | ≤ 4 | 64 (≈ 212 µM) | – |
| O=C(Nc1ncco1)c1cncc(-c2ccc(F)c(Cl)c2)c1 [Compound 81, 5-(3-Chloro-4-fluorophenyl)-N-(oxazol-2-yl)nicotinamide] | – | – | 2 (≈ 6.3 µM) | 4 | 8 (≈ 25.2 µM) | – |
| O=C(Nc1ncco1)c1cncc(-c2ccc(F)c(F)c2)c1 [Compound 82, 5-(3,4-Difluorophenyl)-N-(oxazol-2-yl)nicotinamide] | – | – | 4 (≈ 13.3 µM) | 2 | 8 (≈ 26.6 µM) | – |
| O=C(Nc1ncco1)c1ccnc(-c2ccc(Cl)c(Cl)c2)n1 [Compound 83, 2-(3,4-Dichlorophenyl)-N-(oxazol-2-yl)pyrimidine-4-carboxamide] | – | – | 1 (≈ 2.98 µM) | 0.5 | 0.5 (≈ 1.49 µM) | – |
| O=C(Nc1ncco1)c1ccnc(-c2cccc(Cl)c2)n1 [Compound 84, 2-(3-Chlorophenyl)-N-(oxazol-2-yl)pyrimidine-4-carboxamide] | – | – | 4 (≈ 13.3 µM) | 1 | 4 (≈ 13.3 µM) | – |
| O=C(Nc1ncco1)c1ccnc(-c2cccc(C(F)(F)F)c2)n1 [Compound 85, N-(Oxazol-2-yl)-2-(3-(trifluoromethyl)phenyl)pyrimidine-4-carboxamide] | – | – | 2 (≈ 5.98 µM) | 1 | 2 (≈ 5.98 µM) | – |
| O=C(Nc1ncco1)c1cncc(-c2ccc(Cl)c(Cl)c2)n1 [Compound 86, 6-(3,4-Dichlorophenyl)-N-(oxazol-2-yl)pyrazine-2-carboxamide] | – | – | 8 (≈ 23.9 µM) | 0.5 | 4 (≈ 11.9 µM) | – |
| O=C(Nc1ncco1)c1cc(-c2ccc(Cl)cc2)ccn1 [Compound 88, 4-(4-Chlorophenyl)-N-(oxazol-2-yl)picolinamide] | – | – | 4 (≈ 13.3 µM) | 32 | 128 (≈ 427 µM) | – |
| O=C(Nc1ncco1)c1cc(-c2ccc(OC(F)(F)F)cc2)ccn1 [Compound 95, N-(Oxazol-2-yl)-4-(4-(trifluoromethoxy)phenyl)picolinamide] | – | – | 0.25 (≈ 0.716 µM) | 512 | 128 (≈ 366 µM) | – |
| O=C(Nc1ncco1)c1cc(-c2cccc(OC(F)(F)F)c2)ccn1 [Compound 96, N-(Oxazol-2-yl)-4-(3-(trifluoromethoxy)phenyl)picolinamide] | – | – | 0.5 (≈ 1.43 µM) | ≥512 | ≥ 256 | – |
| O=C(Nc1ncco1)c1ccnc(Oc2cccc(Cl)c2)c1 [Compound 100, 2-(3-Chlorophenoxy)-N-(oxazol-2-yl)isonicotinamide] | 1 (≈ 3.17 µM) | 2 (≈ 6.33 µM) | – | – | – | – |
| O=C(Nc1ncco1)c1ccnc(Oc2ccc(F)c(Cl)c2)c1 [Compound 101, 2-(3-Chloro-4-fluorophenoxy)-N-(oxazol-2-yl)isonicotinamide] | 1 (≈ 3 µM) | 2 (≈ 5.99 µM) | – | – | – | – |
| O=C(Nc1ncco1)c1ccnc(Oc2ccc(Cl)c(F)c2)c1 [Compound 102, 2-(4-Chloro-3-fluorophenoxy)-N-(oxazol-2-yl)isonicotinamide] | 1 (≈ 3 µM) | 2 (≈ 5.99 µM) | – | – | – | – |
| O=C(Nc1ncco1)c1ccnc(Oc2cccc(C(F)(F)F)c2)c1 [Compound 103, N-(Oxazol-2-yl)-2-(3-(trifluoromethyl)phenoxy)isonicotinamide] | 1 (≈ 2.86 µM) | 1 (≈ 2.86 µM) | – | – | – | – |
| O=C(Nc1ncco1)c1ccnc(Oc2ccc(OC(F)(F)F)cc2)c1 [Compound 104, N-(Oxazol-2-yl)-2-(4-(trifluoromethoxy)phenoxy)isonicotinamide] | 1 (≈ 2.74 µM) | 16 (≈ 43.8 µM) | – | – | – | – |
| O=C(Nc1ncco1)c1ccnc(Oc2cccc(OC(F)(F)F)c2)c1 [Compound 105, N-(Oxazol-2-yl)-2-(3-(trifluoromethoxy)phenoxy)isonicotinamide] | 1 (≈ 2.74 µM) | 16 (≈ 43.8 µM) | – | – | – | – |
| C#CCCCCCOC(=O)c1ccc2oc(NC(=O)c3cc(Oc4ccc(F)c(F)c4)ccn3)nc2c1 [Compound 117, Hept-6-yn-1-yl 2-(4-(3,4-difluorophenoxy)picolinamido)benzo[d]oxazole-5-carboxylate] | 32 (≈ 63.3 µM) | 128 (≈ 253 µM) | – | – | – | – |

Source: patent US20230271950A1, “ANTIBACTERIAL PICOLINAMIDE COMPOUNDS” (University of Notre Dame Du Lac, priority 2020, published 2023)
